# Assays:
# [1] = tested on: MDA-MB-468; assay: Cytotoxicity against human MDA-MB-468 cells assessed as growth inhibition at 10 uM relative to control; assay type: functional; details: read-out: GI
# [2] = tested on: RXF 393; assay: Cytotoxicity against human RXF 393 cells assessed as growth inhibition at 10 uM relative to control; assay type: functional; details: read-out: GI
# [3] = tested on: T47D; assay: Cytotoxicity against human T47D cells assessed as growth inhibition at 10 uM relative to control; assay type: functional; details: read-out: GI
# [4] = tested on: UACC-62; assay: Cytotoxicity against human UACC-62 cells assessed as growth inhibition at 10 uM relative to control; assay type: functional; details: read-out: GI
# [5] = tested on: SR; assay: Cytotoxicity against human SR cells assessed as growth inhibition at 10 uM relative to control; assay type: functional; details: read-out: GI
# [6] = tested on: A549; assay: Cytotoxicity against human A549 cells assessed as growth inhibition at 10 uM relative to control; assay type: functional; details: read-out: GI
# [7] = tested on: RPMI-8226; assay: Cytotoxicity against human RPMI-8226 cells assessed as growth inhibition at 10 uM relative to control; assay type: functional; details: read-out: GI
# [8] = tested on: MOLT-4; assay: Cytotoxicity against human MOLT-4 cells assessed as growth inhibition at 10 uM relative to control; assay type: functional; details: read-out: GI
# [9] = tested on: MCF7; assay: Cytotoxicity against human MCF7 cells assessed as growth inhibition at 10 uM relative to control; assay type: functional; details: read-out: GI
# [10] = tested on: UO-31; assay: Cytotoxicity against human UO-31 cells assessed as growth inhibition at 10 uM relative to control; assay type: functional; details: read-out: GI
# [11] = tested on: CAKI-1; assay: Cytotoxicity against human CAKI-1 cells assessed as growth inhibition at 10 uM relative to control; assay type: functional; details: read-out: GI
# [12] = tested on: A498; assay: Cytotoxicity against human A498 cells assessed as growth inhibition at 10 uM relative to control; assay type: functional; details: read-out: GI
# [13] = tested on: 786-0; assay: Cytotoxicity against human 786-0 cells assessed as growth inhibition at 10 uM relative to control; assay type: functional; details: read-out: GI
# [14] = tested on: SNB-75; assay: Cytotoxicity against human SNB-75 cells assessed as growth inhibition at 10 uM relative to control; assay type: functional; details: read-out: GI
# [15] = tested on: NCI-H522; assay: Cytotoxicity against human NCI-H522 cells assessed as growth inhibition at 10 uM relative to control; assay type: functional; details: read-out: GI
# [16] = Cytotoxicity against human RPTEC cells assessed as inhibition of cell growth incubated for 24 hrs by MTT assay; assay type: toxicity, cell-based
# [17] = tested on: UO-31; assay: Induction of cell cycle arrest in human UO-31 cells assessed as accumulation of cells in G0-G1 phase at 3.61 uM measured after 24 hrs by PI staining based flow cytometry analysis (reference value: 49.26%); assay type: functional
# [18] = tested on: UO-31; assay: Induction of cell cycle arrest in human UO-31 cells assessed as accumulation of cells in S phase at 3.61 uM measured after 24 hrs by PI staining based flow cytometry analysis (reference value: 36.42%); assay type: functional
# [19] = tested on: UO-31; assay: Induction of cell cycle arrest in human UO-31 cells assessed as accumulation of cells in G2/M phase at 3.61 uM measured after 24 hrs by PI staining based flow cytometry analysis (reference value: 14.32%); assay type: functional
# [20] = tested on: UO-31; assay type: functional, Homo sapiens; details: dose 3.61 µM; time 24 hrs
# [21] = tested on: UO-31; assay: Induction of cell cycle arrest in human UO-31 cells assessed as cell aggregates at 3.61 uM measured after 24 hrs by PI staining based flow cytometry analysis (reference value: 1.82%); assay type: functional
# [22] = tested on: UO-31; assay: Induction of cell cycle arrest in human UO-31 cells assessed as cell debris at 3.61 uM measured after 24 hrs by PI staining based flow cytometry analysis (reference value: 2.19%); assay type: functional
# [23] = tested on: UO-31; assay: Induction of apoptosis in human UO-31 cells assessed as early apoptotic cells at IC50 by Annexin V-FITC/PI staining based flow cytometry analysis (reference value: 0.61%); assay type: functional
# [24] = tested on: UO-31; assay: Induction of apoptosis in human UO-31 cells assessed as late apoptotic cells at IC50 by Annexin V-FITC/PI staining based flow cytometry analysis (reference value: […]); assay type: functional
# [25] = tested on: UO-31; assay: Induction of apoptosis in human UO-31 cells assessed as necrotic cells at IC50 by Annexin V-FITC/PI staining based flow cytometry analysis (reference value: 1.19%); assay type: functional
# [26] = tested on: UO-31; assay: Induction of apoptosis in human UO-31 cells assessed as increase in caspase-3 level by measuring optical density by Western blot densitometry analysis (reference value: 0.095); assay type: functional
# [27] = tested on: UO-31; assay: Induction of apoptosis in human UO-31 cells assessed as Bax protein level by ELISA (reference value: 70.11 +/- 7.45 pg/ml); assay type: functional
# [28] = tested on: UO-31; assay: Induction of apoptosis in human UO-31 cells assessed as Bcl-2 protein level by ELISA (reference value: 12.19 +/- 0.64 ng/ml); assay type: functional
# [29] = tested on: UO-31; assay: Induction of apoptosis in human UO-31 cells assessed as fold increase in Bax protein level by ELISA relative to control; assay type: functional
# [30] = tested on: UO-31; assay: Induction of apoptosis in human UO-31 cells assessed as fold decrease in Bcl-2 protein level by ELISA relative to control; assay type: functional
# [31] = tested on: UO-31; assay: cells; details: Homo sapiens, UO-31, 24 h
# [32] = tested on: M14; assay: cells; details: Homo sapiens, M14, 24 h
# [33] = tested on: HCT-116; assay: cells; details: Homo sapiens, HCT-116, 24 h
# [34] = tested on: SNB-75; assay: cells; details: Homo sapiens, SNB-75, 24 h
# [35] = tested on: UO-31; assay: cells; details: Homo sapiens, UO-31, light or radiation study
# [36] = tested on: M14; assay: cells; details: Homo sapiens, M14, light or radiation study
# [37] = target: Vascular endothelial growth factor A, long form (Homo sapiens) (UniProt P15692); assay: Inhibition of VEGF-mediated cell migration in HUVEC cells assessed as wound closure at 10 ug/ml measured after 72 hrs by scratch-wound healing assay; assay type: cell-based; design: scale not given: the % may be the effect or the level left; details: dose 10.0 µg/ml
# [38] = Inhibition of PDGFR (unknown origin) incubated for 60 mins in presence of ATP by ADP-Glo kinase assay; design: species or system Homo sapiens
# [39] = tested on: UO-31; assay: Induction of cell cycle arrest in human UO-31 cells assessed as cell aggregates at 1.67 uM measured after 24 hrs by PI staining based flow cytometry analysis (reference value: 1.82%); assay type: functional
# [40] = tested on: MDA-MB-231; assay: Cytotoxicity against human MDA-MB-231 cells assessed as growth inhibition at 10 uM relative to control; assay type: functional; details: read-out: GI
# [41] = tested on: Hs-578T; assay: Cytotoxicity against human Hs-578T cells assessed as growth inhibition at 10 uM relative to control; assay type: functional; details: read-out: GI
# [42] = tested on: SK-OV-3; assay: Cytotoxicity against human SK-OV-3 cells assessed as growth inhibition at 10 uM relative to control; assay type: functional; details: read-out: GI
# [43] = tested on: IGROV-1; assay: Cytotoxicity against human IGROV-1 cells assessed as growth inhibition at 10 uM relative to control; assay type: functional; details: read-out: GI
# [44] = tested on: SF-268; assay: Cytotoxicity against human SF-268 cells assessed as growth inhibition at 10 uM relative to control; assay type: functional; details: read-out: GI
# [45] = tested on: KM12; assay: Cytotoxicity against human KM12 cells assessed as growth inhibition at 10 uM relative to control; assay type: functional; details: read-out: GI
# [46] = tested on: HT-29; assay: Cytotoxicity against human HT-29 cells assessed as growth inhibition at 10 uM relative to control; assay type: functional; details: read-out: GI
# [47] = tested on: EKVX; assay: Cytotoxicity against human EKVX cells assessed as growth inhibition at 10 uM relative to control; assay type: functional; details: read-out: GI
# [48] = tested on: K562; assay: Cytotoxicity against human K562 cells assessed as growth inhibition at 10 uM relative to control; assay type: functional; details: read-out: GI
# [49] = tested on: CCRF-CEM; assay: Cytotoxicity against human CCRF-CEM cells assessed as growth inhibition at 10 uM relative to control; assay type: functional; details: read-out: GI
# [50] = tested on: BT-549; assay: Cytotoxicity against human BT-549 cells assessed as growth inhibition at 10 uM relative to control; assay type: functional; details: read-out: GI
# [51] = tested on: LOX IMVI; assay: Cytotoxicity against human LOX IMVI cells assessed as growth inhibition at 10 uM relative to control; assay type: functional; details: read-out: GI
# [52] = tested on: HOP-92; assay: Cytotoxicity against human HOP-92 cells assessed as growth inhibition at 10 uM relative to control; assay type: functional; details: read-out: GI
# Chain of Vascular endothelial growth factor A, long form (Homo sapiens) (P15692 whole entry): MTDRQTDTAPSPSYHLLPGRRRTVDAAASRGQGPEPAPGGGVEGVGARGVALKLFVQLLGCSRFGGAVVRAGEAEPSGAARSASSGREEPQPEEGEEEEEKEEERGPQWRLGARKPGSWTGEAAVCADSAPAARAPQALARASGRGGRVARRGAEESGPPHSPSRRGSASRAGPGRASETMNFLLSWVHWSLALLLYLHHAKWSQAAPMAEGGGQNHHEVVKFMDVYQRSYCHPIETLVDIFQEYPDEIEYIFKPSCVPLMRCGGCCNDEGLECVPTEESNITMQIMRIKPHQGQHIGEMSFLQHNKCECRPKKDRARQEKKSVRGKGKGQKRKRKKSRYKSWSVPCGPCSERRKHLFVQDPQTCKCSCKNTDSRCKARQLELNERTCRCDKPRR
smiles,measurement,setting,value
O=C(CSc1nc2ccccc2c(=O)n1-c1ccc(S(=O)(=O)Nc2ccc(Cl)nn2)cc1)NCc1ccccc1,inhibition of growth at 10 µM,[1],16%
same,inhibition of growth at 10 µM,[2],18%
same,inhibition of growth at 10 µM,[3],24%
same,inhibition of growth at 10 µM,[4],18%
same,inhibition of growth at 10 µM,[5],12%
same,inhibition of growth at 10 µM,[6],11%
same,inhibition of growth at 10 µM,[7],21%
same,inhibition of growth at 10 µM,[8],12%
same,inhibition of growth at 10 µM,[9],11%
same,inhibition of growth at 10 µM,[10],12%
same,inhibition of growth at 10 µM,[11],14%
same,inhibition of growth at 10 µM,[12],18%
same,inhibition of growth at 10 µM,[13],10%
same,inhibition of growth at 10 µM,[14],12%
same,inhibition of growth at 10 µM,[15],14%
COc1cccc2c1C(=O)c1c(O)c3c(c(O)c1C2=O)C[C@@](O)(C(=O)CO)C[C@@H]3O[C@H]1C[C@H](N)[C@H](O)[C@H](C)O1 [DOXORUBICIN],IC50 at 24 h,[16],12.5 µM
same,Activity,[17],43.47%
same,Activity,[18],48.62%
same,Activity,[19],7.91%
same,Activity,[20],51.66%
same,Activity,[21],2.13%
same,Activity,[22],1.66%
same,Activity,[23],14.13%
same,Activity,[24],26.5%
same,Activity,[25],11.03%
same,OD,[26],0.844
same,Activity,[27],392.1 pg/mL
same,Activity,[28],4.396 ng/mL
same,fold change (FC),[29],5.59
same,fold change (FC),[30],0.36
same,IC50,[31],3.61 µM
same,IC50,[32],5.11 µM
same,IC50,[33],0.49 µM
same,IC50,[34],5.82 µM
same,IC50,[35],3.01 µM
same,IC50,[36],2.13 µM
CNC(=O)c1cc(Oc2ccc(NC(=O)Nc3ccc(Cl)c(C(F)(F)F)c3)cc2)ccn1 [SORAFENIB],Activity,[37],46.7%
same,IC50,[38],0.04 µM
same,Activity,[39],1.47%
same,Activity,[23],19.42%
same,Activity,[24],31.17%
same,Activity,[25],4.72%
same,Activity,[27],409.2 pg/mL
same,Activity,[28],3.898 ng/mL
O=C(CSc1nc2ccccc2c(=O)n1-c1ccc(S(=O)(=O)Nc2ccc(Cl)nn2)cc1)NCCc1ccccc1,inhibition of growth at 10 µM,[1],10%
same,inhibition of growth at 10 µM,[40],20%
same,inhibition of growth at 10 µM,[41],23%
same,inhibition of growth at 10 µM,[3],27%
same,inhibition of growth at 10 µM,[42],20%
same,inhibition of growth at 10 µM,[43],15%
same,inhibition of growth at 10 µM,[4],20%
same,inhibition of growth at 10 µM,[44],13%
same,inhibition of growth at 10 µM,[45],14%
same,inhibition of growth at 10 µM,[46],11%
same,inhibition of growth at 10 µM,[47],24%
same,inhibition of growth at 10 µM,[5],21%
same,inhibition of growth at 10 µM,[7],11%
same,inhibition of growth at 10 µM,[8],20%
same,inhibition of growth at 10 µM,[48],11%
same,inhibition of growth at 10 µM,[49],14%
same,inhibition of growth at 10 µM,[50],10%
same,inhibition of growth at 10 µM,[9],24%
same,inhibition of growth at 10 µM,[10],29%
same,inhibition of growth at 10 µM,[12],37%
same,inhibition of growth at 10 µM,[13],16%
same,inhibition of growth at 10 µM,[51],14%
same,inhibition of growth at 10 µM,[15],22%
same,inhibition of growth at 10 µM,[52],12%
same,IC50,[31],3.14 µM
same,IC50,[35],3.49 µM
